This experiment deals with CD2F1 mice, L1210 leukemia ip, survival T/C. The experiment can be described thus: NCI In Vivo Anticancer Drug Screen. Data for tumor model L1210 Leukemia (intraperitoneal) in CD2F1 (CDF1) mice. The settings on record: higher = longer survival. The method, boiled down:
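Vehicle-treated tumor-bearing mice served as controls (C) for compound-treated mice (T). Reported figure is T divided by C.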

Where [1] appears, read: endpoint: mean survival time, dose: 100.0 mg/kg/injection, schedule: Q01DX001 (ip), vehicle: saline.
Setting [2] is: endpoint: mean survival time, dose: 200.0 mg/kg/injection, schedule: Q01DX001 (ip), vehicle: saline.
[3] abbreviates: endpoint: mean survival time, dose: 100.0 mg/kg/injection, schedule: Q01DX009 (ip), vehicle: saline with Tween-80.
The mark [4] stands for this setting: endpoint: mean survival time, dose: 100.0 mg/kg/injection, schedule: Q04DX003 (ip), vehicle: saline with Tween-80.
Where [5] appears, read: endpoint: mean survival time, dose: 200.0 mg/kg/injection, schedule: Q01DX009 (ip), vehicle: saline with Tween-80.
The mark [6] stands for this setting: endpoint: mean survival time, dose: 200.0 mg/kg/injection, schedule: Q04DX003 (ip), vehicle: saline with Tween-80.
Where [7] appears, read: endpoint: mean survival time, dose: 400.0 mg/kg/injection, schedule: Q04DX003 (ip), vehicle: saline with Tween-80.
The mark [8] stands for this setting: endpoint: mean survival time, dose: 400.0 mg/kg/injection, schedule: Q01DX009 (ip), vehicle: saline with Tween-80.

Molecules are shown by their SMILES. Several values for one entry are separate records, joined by “and”; a condition that tells them apart may be missing. Equal entries are not always repeated. Inconclusive results and toxic doses are left out. Residues, ends and D or L forms follow the SMILES beside them. *: point of attachment. Cbz = O=C(OCc1ccccc1)*

`CC(=O)O.CC(=O)O.O.[Fe]`: the T/C runs as follows: under setting [1], 98 % of control; under setting [2], 96 % of control; (endpoint: mean survival time, dose: 400.0 mg/kg/injection, schedule: Q01DX001 (ip), vehicle: saline) 100 % of control.

For the compound `Cc1ccc([N+](=O)[O-])c(N)n1`, the T/C under setting [3] is 96 % of control; the T/C under setting [4] is 98 % of control; the T/C under setting [5] is 86 % of control; the T/C under setting [6] is 98 % of control; the T/C under setting [7] is 100 % of control.

Take `CCCCCCCCCCCCCCCCOP(=O)(O)OCCCCCCCCCCCCCCCC`: the T/C was 96 % of control (endpoint: mean survival time, dose: 25.0 mg/kg/injection, schedule: Q01DX009 (ip), vehicle: saline with Tween-80); 102 % of control (endpoint: mean survival time, dose: 50.0 mg/kg/injection, schedule: Q01DX009 (ip), vehicle: saline with Tween-80); 95 % of control under setting [3].

For `O=C(CCl)Cc1ccccc1`, the T/C is, setting by setting: (endpoint: mean survival time, dose: 50.0 mg/kg/injection, schedule: Q04DX003 (ip), vehicle: saline) 98 % of control; under setting [1], 104 % of control; (endpoint: mean survival time, dose: 100.0 mg/kg/injection, schedule: Q04DX003 (ip), vehicle: saline) 92 % of control; under setting [2], 103 % of control; (endpoint: mean survival time, dose: 200.0 mg/kg/injection, schedule: Q04DX003 (ip), vehicle: saline) 101 % of control.

Consider `CCOC(=O)C(C)C(C)(O)c1ccccc1` (stereo unspecified), for which the T/C is 97 % of control under setting [4], 97 % of control under setting [6] and 98 % of control under setting [7].

Turning to `O=C(O)c1cc(-c2ccc(-c3ccc(-c4cc(C(=O)O)c5cc(Cl)ccc5n4)cc3)cc2)nc2ccc(Cl)cc12`, the T/C reads like this: under setting [3], 91 % of control; under setting [5], 91 % of control; under setting [8], 100 % of control.

On to `CC[C@@]1(O)C(=O)OCc2c1cc1n(c2=O)Cc2cc3c(CN(C)C)c(O)ccc3nc2-1`, for which the T/C is, setting by setting: (endpoint: median survival time, dose: 5.0 mg/kg/injection, schedule: Q04DX002 (ip), vehicle: water) 119 % of control; (endpoint: median survival time, dose: 20.0 mg/kg/injection, schedule: Q04DX002 (ip), vehicle: water) 183 % of control; (endpoint: median survival time, dose: 40.0 mg/kg/injection, schedule: Q04DX002 (ip), vehicle: water) 264 % of control.

As to `CC(C)CC(NC(=O)C(C)NC(=O)OCc1ccccc1)C(N)=O` (stereo not drawn) (Cbz-Ala-Leu-NH2; configuration not given here), the T/C under setting [3] is 89 % of control.

Take `CC1C2CCC(C2)C1C(=O)O` (stereo unspecified): the T/C reads like this: under setting [3], 98 % of control; (endpoint: mean survival time, dose: 100.0 mg/kg/injection, schedule: Q04DX003 (ip), vehicle: other) 94 % of control; under setting [5], 94 % of control; (endpoint: mean survival time, dose: 200.0 mg/kg/injection, schedule: Q04DX003 (ip), vehicle: other) 87 % of control; under setting [8], 86 % of control; (endpoint: mean survival time, dose: 400.0 mg/kg/injection, schedule: Q04DX003 (ip), vehicle: other) 90 % of control.

As to `CC(=O)Nc1cccc(C(C)=O)c1[N+](=O)[O-]`, the T/C was 102 % of control under setting [3], 97 % of control under setting [5] and 93 % of control under setting [8].

As for `CCc1ccc(NN=Nc2ccccc2C#N)cc1`, the T/C is 95 % of control under setting [4], 95 % of control under setting [6] and 98 % of control under setting [7].

With `CCc1c(Cl)c(C)c(Cl)c(O)c1Cl`, the T/C under setting [4] is 96 % of control and the T/C under setting [6] was 88 % of control.

In the case of `C1=C(CCc2c[nH]c3ccccc23)CCN(CCc2ccccc2)C1`, the T/C is, setting by setting: (endpoint: mean survival time, dose: 50.0 mg/kg/injection, schedule: Q01DX009 (ip), vehicle: Klucel (hydroxypropylcellulose) (HPC)) 103 % of control; (endpoint: mean survival time, dose: 100.0 mg/kg/injection, schedule: Q01DX009 (ip), vehicle: Klucel (hydroxypropylcellulose) (HPC)) 95 % of control; (endpoint: mean survival time, dose: 200.0 mg/kg/injection, schedule: Q01DX009 (ip), vehicle: Klucel (hydroxypropylcellulose) (HPC)) 122 % of control.

Regarding `O=C(NO)c1ccccc1`, the T/C was 96 % of control (endpoint: mean survival time, dose: 25.0 mg/kg/injection, schedule: Q01DX009 (ip), vehicle: saline); 94 % of control (endpoint: mean survival time, dose: 50.0 mg/kg/injection, schedule: Q01DX009 (ip), vehicle: saline); 110 % of control (endpoint: mean survival time, dose: 100.0 mg/kg/injection, schedule: Q01DX001 (ip), vehicle: saline with Tween-80); 103 % of control (endpoint: mean survival time, dose: 100.0 mg/kg/injection, schedule: Q01DX009 (ip), vehicle: saline sonified); 98 % of control and 109 % of control (endpoint: mean survival time, dose: 100.0 mg/kg/injection, schedule: Q01DX009 (ip), vehicle: saline); 98 % of control under setting [4]. Further, the T/C is 103 % of control (endpoint: mean survival time, dose: 200.0 mg/kg/injection, schedule: Q01DX001 (ip), vehicle: saline with Tween-80); 115 % of control (endpoint: mean survival time, dose: 200.0 mg/kg/injection, schedule: Q01DX009 (ip), vehicle: saline sonified); 121 % of control and 102 % of control (endpoint: mean survival time, dose: 200.0 mg/kg/injection, schedule: Q01DX009 (ip), vehicle: saline); 96 % of control under setting [6]; 117 % of control (endpoint: mean survival time, dose: 400.0 mg/kg/injection, schedule: Q01DX001 (ip), vehicle: saline with Tween-80); 116 % of control under setting [7].

Regarding `OCC1OC(n2cnc3c2NC=NC[C@H]3O)CC1O` (stereo partly specified), the T/C reads like this: (endpoint: mean survival time, dose: 0.13 mg/kg/injection, schedule: Q01DX005 (ip), vehicle: water) 93 % of control; (endpoint: mean survival time, dose: 0.13 mg/kg/injection, schedule: Q01DX009 (ip), vehicle: water) 95 % of control; (endpoint: mean survival time, dose: 0.2 mg/kg/injection, schedule: Q03HX024 (ip), vehicle: saline with Tween-80) 102 % of control; (endpoint: mean survival time, dose: 0.25 mg/kg/injection, schedule: Q01DX005 (ip), vehicle: water) 108 % of control; (endpoint: mean survival time, dose: 0.25 mg/kg/injection, schedule: Q01DX009 (ip), vehicle: water) 101 % of control; (endpoint: mean survival time, dose: 0.25 mg/kg/injection, schedule: Q04DX002 (ip), vehicle: water) 94 % of control. In addition, the T/C is 99 % of control (endpoint: mean survival time, dose: 0.25 mg/kg/injection, schedule: Q04DX003 (ip), vehicle: water); 101 % of control (endpoint: mean survival time, dose: 0.3 mg/kg/injection, schedule: Q03HX024 (ip), vehicle: saline with Tween-80); 115 % of control and 103 % of control (endpoint: mean survival time, dose: 0.4 mg/kg/injection, schedule: Q03HX024 (ip), vehicle: saline with Tween-80); 116 % of control (endpoint: mean survival time, dose: 0.5 mg/kg/injection, schedule: Q03HX024 (ip), vehicle: saline with Tween-80); 101 % of control (endpoint: mean survival time, dose: 0.5 mg/kg/injection, schedule: Q04DX002 (ip), vehicle: water); 96 % of control (endpoint: mean survival time, dose: 0.5 mg/kg/injection, schedule: Q04DX003 (ip), vehicle: water). Moreover, the T/C (endpoint: mean survival time, dose: 0.6 mg/kg/injection, schedule: Q03HX024 (ip), vehicle: saline with Tween-80) was 110 % of control; the T/C (endpoint: mean survival time, dose: 0.75 mg/kg/injection, schedule: Q03HX024 (ip), vehicle: saline with Tween-80) was 111 % of control; the T/C (endpoint: median survival time, dose: 0.1 mg/kg/injection, schedule: Q01DX009 (ip), vehicle: saline) is 101 % of control; the T/C (endpoint: median survival time, dose: 0.13 mg/kg/injection, schedule: Q01DX009 (ip), vehicle: saline) is 102 % of control; the T/C (endpoint: median survival time, dose: 0.21 mg/kg/injection, schedule: Q01DX009 (ip), vehicle: saline) was 113 % of control; the T/C (endpoint: median survival time, dose: 0.25 mg/kg/injection, schedule: Q01DX009 (ip), vehicle: saline) is 104 % of control and 108 % of control. Also, the T/C (endpoint: median survival time, dose: 0.25 mg/kg/injection, schedule: Q03HX012 (ip), vehicle: saline) is 112 % of control; the T/C (endpoint: median survival time, dose: 0.3 mg/kg/injection, schedule: Q01DX009 (ip), vehicle: saline) was 104 % of control; the T/C (endpoint: median survival time, dose: 0.5 mg/kg/injection, schedule: Q01DX009 (ip), vehicle: saline) was 104 % of control and 110 % of control; the T/C (endpoint: median survival time, dose: 0.5 mg/kg/injection, schedule: Q03HX012 (ip), vehicle: saline) is 113 % of control; the T/C (endpoint: median survival time, dose: 1.0 mg/kg/injection, schedule: Q01DX009 (ip), vehicle: saline) is 108 % of control; the T/C (endpoint: median survival time, dose: 2.0 mg/kg/injection, schedule: Q01DX009 (ip), vehicle: saline) is 102 % of control. Further, the T/C by setting is: (endpoint: median survival time, dose: 3.0 mg/kg/injection, schedule: Q01DX005 (ip), vehicle: saline) 95 % of control; (endpoint: median survival time, dose: 3.0 mg/kg/injection, schedule: Q01DX009 (ip), vehicle: saline) 109 % of control; (endpoint: median survival time, dose: 4.0 mg/kg/injection, schedule: Q01DX005 (ip), vehicle: saline) 100 % of control; (endpoint: median survival time, dose: 5.0 mg/kg/injection, schedule: Q01DX005 (ip), vehicle: saline) 97 % of control; (endpoint: median survival time, dose: 6.0 mg/kg/injection, schedule: Q01DX005 (ip), vehicle: saline) 97 % of control; (endpoint: median survival time, dose: 7.0 mg/kg/injection, schedule: Q01DX005 (ip), vehicle: saline) 104 % of control. The T/C (endpoint: median survival time, dose: 10.0 mg/kg/injection, schedule: Q01DX009 (ip), vehicle: saline) is 109 % of control.

Values taken from PubChem BioAssay AID256 (DTP/NCI, 2004).
